Measured values from PMC11509080, “Discovery of Kuraridin as a Potential Natural Anti-Melanogenic Agent: Focusing on Specific Target Genes and Multidirectional Signaling Pathways” (International Journal of Molecular Sciences, 2024).
Values belong to the compound of their own block, whether it stands above or below them.

Legend:
tyrosinase [1] = target: T1, tyrosinase (Agaricus bisporus, UniProt C7FF04); assay: Enzyme kinetic analysis of tyrosinase with L-tyrosine (Lineweaver-Burk, Dixon plots); type: biochemical; conditions: substrate L-tyrosine
T1 sequence (G1K3P4 entry or part of it): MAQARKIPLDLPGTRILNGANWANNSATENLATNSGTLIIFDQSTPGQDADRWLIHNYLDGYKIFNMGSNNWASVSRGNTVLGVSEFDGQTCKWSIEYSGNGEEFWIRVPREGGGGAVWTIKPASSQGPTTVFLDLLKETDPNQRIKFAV
T1 sequence (C7FF04 2-392): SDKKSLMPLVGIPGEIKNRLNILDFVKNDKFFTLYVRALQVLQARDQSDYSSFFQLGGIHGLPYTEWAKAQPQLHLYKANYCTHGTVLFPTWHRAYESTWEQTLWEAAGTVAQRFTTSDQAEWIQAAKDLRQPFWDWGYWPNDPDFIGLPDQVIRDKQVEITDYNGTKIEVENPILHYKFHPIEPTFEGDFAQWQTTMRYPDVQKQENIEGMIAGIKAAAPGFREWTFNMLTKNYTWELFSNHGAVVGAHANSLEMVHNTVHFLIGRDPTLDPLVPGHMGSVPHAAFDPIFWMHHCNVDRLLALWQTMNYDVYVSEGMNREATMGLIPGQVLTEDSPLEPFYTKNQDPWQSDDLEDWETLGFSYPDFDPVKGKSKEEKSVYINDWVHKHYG
Procedure: (§1) Enzyme kinetics were analyzed using Lineweaver–Burk and Dixon reciprocal plots of the reaction rate and substrate concentration to evaluate the effect of the sample on the affinity of the substrate and enzyme. The tyrosinase concentration was kept constant at 200 U/mL, whereas the substrate (L-tyrosine/L-DOPA) concentration varied between 0.5 and 2.0 mM. The reaction was similar to the anti-tyrosinase assay described above; 100 µL of sample solution was added, followed by 100 µL of tyrosinase (200 units/mL) after incubation at 25 °C. The substrate was then added to the wells and mixed thoroughly, and kinetic measurements of the solution were performed at a wavelength of 475 nm.

tyrosinase [2] = tested on: tyrosinase; set-up: method as in Deri et al. (2016) [15]; conditions: ref Deri et al. (2016) [15], cited from earlier work
B16F10 melanoma cells [3] = assay: Cellular melanin content (extracellular and intracellular) in α-MSH-induced cells; type: cell-based, Murine
Procedure: B16F10 melanoma cells (7.4 × 10⁴ cells/well) were seeded in a 6-well plate. […] The extracellular melanin content was measured by direct estimation of the absorbance of the cell-free culture medium at 405 nm. For the measurement of intracellular melanin content, cell pellets were dissolved in 1 N NaOH at 95 °C for 1 h. The absorbance of the resulting solution was measured at 405 nm using a microplate reader [Synergy H(1)].

B16F10 cells = assay: Cellular tyrosinase activity (L-DOPA oxidation) in α-MSH-induced cells; type: cell-based, Murine; conditions: for Intracellular tyrosinase activity: α-MSH-induced B16F10 cells
Procedure: Tyrosinase activity was estimated by measuring the rate of L-DOPA oxidation. […] The cells were washed with cold PBS, and cell lysis buffer was added for lysis at 4 °C for 1 h on ice and centrifuged at 13,000 rpm for 20 min at […] to obtain supernatants. Protein concentration was quantified at 50 µg using a BCA protein assay kit. […] Absorbance was measured at 490 nm using a microplate reader.

tyrosinase [4] = target: T1, tyrosinase; assay: Enzyme kinetic analysis of tyrosinase with L-DOPA (Lineweaver-Burk, Dixon plots); type: biochemical; conditions: substrate L-DOPA
Procedure: as §1

B16F10 melanoma cells [5] = assay: Cell viability, CCK-8 assay; type: cell-based, Murine; conditions: 0.1–5 μM, 72 h
Procedure: Murine B16F10 melanoma cells (Korean Cell Line Bank, Seoul, Republic of Korea) were cultured in DMEM containing 10% FBS and 1% penicillin-streptomycin at 37 °C in the humidified atmosphere of a 5% CO2 incubator. The cells were cultured until 100% confluent for all experiments.
Cell viability was assessed using the CCK-8 kit. Cells were incubated in 96-well plates at a density of approximately 3 × 10^3 cells/well. After 24 h incubation, a kuraridin concentration (0.1–10 µM) of samples or medium was added to B16F10 cells at 72 h of incubation. Absorbance was monitored at 450 nm using a microplate reader (Synergy H(1), Biotek, VT, USA).

[6] = B16F10 cells, α-MSH stimulation 0.1 μM, 72 h, control = 100%
[7] = α-MSH-induced B16F10 cells, 0.1–5 μM, dose-dependent

Compound: O=c1cc(CO)occ1O [Kojic acid]
Inhibition Type L-DOPA (tyrosinase [2]; substrate L-DOPA): Mixed ^2
Inhibition Type L-Tyrosine (tyrosinase [2]; substrate L-tyrosine): Mixed ^2

Compound: alpha-melanocyte-stimulating hormone [α-MSH, reference compound]
Extracellular melanin content (B16F10 melanoma cells [3]; [6]): approximately 132%
Intracellular melanin content (B16F10 melanoma cells [3]; [6]): ~127%
Increase of intracellular tyrosinase activity compared with control group (B16F10 cells; B16F10 cells, α-MSH 100 nM, 72 h): 1.8 fold

Now from value to compound, other results behind:

Inhibition Type L-Tyrosine (tyrosinase [1]): Non-competitive
Compound: C=C(C)[C@H](CCC(C)(C)O)Cc1c(O)cc(OC)c2c1O[C@H](c1ccc(O)cc1O)CC2=O [Kurarinol, kurarinol]

Inhibition Type L-Tyrosine (tyrosinase [1]): Non-competitive
Compound: C=C(C)[C@H](CC=C(C)C)Cc1c(O)cc(O)c2c1O[C@H](c1ccccc1O)CC2=O [Kushenol A, kushenol A]

Inhibition Type L-DOPA (tyrosinase [4]): Competitive
Inhibition Type L-DOPA (tyrosinase [4]; listed as kuraridin): competitive inhibition
Inhibition Type L-Tyrosine (tyrosinase [1]): Non-competitive
Compound: C=C(C)[C@H](CC=C(C)C)Cc1c(O)cc(OC)c(C(=O)/C=C/c2ccc(O)cc2O)c1O [Kuraridin, kuraridin]
Extracellular melanin production (B16F10 melanoma cells [3]; [7]): significantly attenuated
Intracellular melanin production (B16F10 melanoma cells [3]; [7]): significantly attenuated
Intracellular melanin content lower than the untreated control (B16F10 melanoma cells [3]; α-MSH-treated B16F10 cells, 1 µM): 15%
Intracellular tyrosinase activity (B16F10 cells; all tested concentrations (0.1–5 μM), vs α-MSH only, p < 0.001): significantly suppressed tyrosinase activity
Intracellular tyrosinase activity (B16F10 cells; lowest concentration 0.1 μM): reached control levels
Cytotoxicity (cell viability) (B16F10 melanoma cells [5]): without cytotoxicity
